Measured values from patent US10988523B2, “Modified lipidated Relaxin B chain peptides and their therapeutic use” (Sanofi, priority 2018, dated 2021).
*1 amine or outer side, *2 acyl side, *3 side chain or, on linkers, in order; H or OH if unused. Where a SMILES comes first, the peptide text is derived from it. Side-chain parts run from the residue outwards. [ ]: non-standard residue; d: D form. The star is where a group is joined. X15 = CCCCCCCCCCCCCCCCCC(=O)N[C@@H](CCC(=O)N[C@@H](CCC(=O)N[C@@H](CCC(=O)NCCCOCCOCCOCCCNC(=O)COCC(=O)NCCCOCCOCCOCCCNC(=O)COCC(=O)NCCCOCCOCCOCCCNC(=O)COCC(=O)*)C(=O)O)C(=O)O)C(=O)O; X16 = CCCCCCCCCCCCCCCCCC(=O)N[C@@H](CCC(=O)N[C@@H](CCC(=O)N[C@@H](CCC(=O)NCCCOCCOCCOCCCNC(=O)COCC(=O)*)C(=O)O)C(=O)O)C(=O)O; γGlu = O=C(O)[C@H](CCC(=O)[*:2])N[*:1]; Stearoyl = CCCCCCCCCCCCCCCCCC(=O)*; Nle = CCCC[C@H](N)C(=O)O; AEEA = NCCOCCOCC(=O)O; Aib = CC(C)(N)C(=O)O

Molecular target: T1, RXFP1 (Homo sapiens, UniProt Q9HBX9)
T1 construct: OVCAR5 cells expressing endogenous RXFP1; endogenous in cells; host or cells: OVCAR5 cells
T1 sequence (Q9HBX9 1-757): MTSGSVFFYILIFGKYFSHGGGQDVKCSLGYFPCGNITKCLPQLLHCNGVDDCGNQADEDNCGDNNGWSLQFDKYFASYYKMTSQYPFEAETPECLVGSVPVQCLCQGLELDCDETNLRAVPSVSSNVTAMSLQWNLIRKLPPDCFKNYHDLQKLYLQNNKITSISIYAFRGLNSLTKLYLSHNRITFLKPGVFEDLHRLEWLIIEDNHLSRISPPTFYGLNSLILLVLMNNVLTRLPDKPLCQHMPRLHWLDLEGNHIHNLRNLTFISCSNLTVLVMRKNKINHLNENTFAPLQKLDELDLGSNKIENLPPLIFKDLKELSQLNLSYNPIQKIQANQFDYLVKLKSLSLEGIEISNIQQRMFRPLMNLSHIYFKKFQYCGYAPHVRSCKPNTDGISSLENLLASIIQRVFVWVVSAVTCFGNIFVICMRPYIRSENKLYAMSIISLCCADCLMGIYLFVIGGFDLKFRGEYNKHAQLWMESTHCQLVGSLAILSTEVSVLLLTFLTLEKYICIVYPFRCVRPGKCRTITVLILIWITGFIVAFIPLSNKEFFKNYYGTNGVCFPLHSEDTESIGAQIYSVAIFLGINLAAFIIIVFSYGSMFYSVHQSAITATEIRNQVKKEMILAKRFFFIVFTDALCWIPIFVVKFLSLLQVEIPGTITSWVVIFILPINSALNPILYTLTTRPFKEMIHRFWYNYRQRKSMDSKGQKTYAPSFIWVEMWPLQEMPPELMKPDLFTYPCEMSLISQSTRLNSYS
Assay: OVCAR5 cAMP assay (HTRF), RXFP1 agonist activity
Format: cell-based
Settings: for EC50: OVCAR5 cells, cAMP HTRF, read-out: EC50 (nM), OVCAR 5 cells (cAMP); for Emax: OVCAR-5, maximal cAMP relative to H2-relaxin maximum (100%), read-out: EMax, OVCAR 5 cells (cAMP)
Procedure, shortened: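 cAMP accumulation readout: after 1 mM IBMX for 40 min, endogenous-RXFP1 OVCAR5 cells got rising peptide concentrations without FCS, 30 min, 37° C, then lysis with HTRF cAMP reagents. Nonlinear regression gave EC50; Emax expressed relative to H2-relaxin maximum, same occasion.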

SMILES: CCCCCCCCCCCCCCCCCC(=O)N[C@@H](CCC(=O)N[C@@H](CCC(=O)N[C@@H](CCC(=O)N[C@@H](CCC(=O)NCCOCCOCC(=O)NCCOCCOCC(=O)NCCOCCOCC(=O)NCCCC[C@H](NC(=O)[C@H](CCCCN)NC(=O)[C@H](CCCCN)NC(=O)[C@H](CCCNC(=N)N)NC(=O)C(C)(C)NC(=O)[C@H](CO)NC(=O)[C@H](Cc1c[nH]c2ccccc12)NC(=O)[C@@H](NC(=O)[C@H](CO)NC(=O)[C@H](CCCC)NC(=O)CNC(=O)[C@H](CCC(=O)O)NC(=O)C(C)(C)NC(=O)C(C)(C)NC(=O)[C@@H](NC(=O)[C@H](CCCCNC(C)=O)NC(=O)[C@H](C)NC(=O)[C@H](CCCNC(=N)N)NC(=O)[C@@H](NC(=O)[C@H](CCCCN)NC(=O)[C@H](CCC(=O)O)NC(=O)[C@H](CCCNC(=N)N)NC(=O)CNC(=O)[C@H](CCC(=O)O)NC(=O)[C@H](CC(C)C)NC(C)=O)C(C)C)[C@@H](C)CC)[C@@H](C)O)C(N)=O)C(=O)O)C(=O)O)C(=O)O)C(=O)O [compound 89] (Ac-LEGREKVRAK(Ac)I[Aib][Aib]EG[Nle]STWS[Aib]RKKK([AEEA-AEEA-AEEA-γGlu-γGlu-γGlu-γGlu-Stearoyl])-NH2)
- EC50: 0.03 nM
- Emax: 79%

SMILES: CCCCCCCCCCCCCCCCCC(=O)N[C@@H](CCC(=O)N[C@@H](CCC(=O)N[C@@H](CCC(=O)NCCOCCOCC(=O)NCCOCCOCC(=O)NCCOCCOCC(=O)NCCOCCOCC(=O)NCCCC[C@H](NC(=O)[C@H](CCCCNC(C)=O)NC(=O)[C@H](CCCCN)NC(=O)[C@H](CCCNC(=N)N)NC(=O)C(C)(C)NC(=O)[C@H](CO)NC(=O)[C@H](Cc1c[nH]c2ccccc12)NC(=O)[C@@H](NC(=O)[C@H](CO)NC(=O)[C@H](CCCC)NC(=O)CNC(=O)[C@H](CCC(=O)O)NC(=O)C(C)(C)NC(=O)C(C)(C)NC(=O)[C@@H](NC(=O)[C@H](CCCCNC(C)=O)NC(=O)[C@H](C)NC(=O)[C@H](CCCNC(=N)N)NC(=O)[C@@H](NC(=O)[C@H](CCCCN)NC(=O)[C@H](CCC(=O)O)NC(=O)[C@H](CCCNC(=N)N)NC(=O)CNC(=O)[C@H](CCC(=O)O)NC(=O)[C@H](CC(C)C)NC(C)=O)C(C)C)[C@@H](C)CC)[C@@H](C)O)C(N)=O)C(=O)O)C(=O)O)C(=O)O [compound 90] (Ac-LEGREKVRAK(Ac)I[Aib][Aib]EG[Nle]STWS[Aib]RKK(Ac)K([AEEA-AEEA-AEEA-AEEA-γGlu-γGlu-γGlu-Stearoyl])-NH2)
- EC50: 0.07 nM
- Emax: 89%

SMILES: CCCCCCCCCCCCCCCCCC(=O)N[C@@H](CCC(=O)N[C@@H](CCC(=O)N[C@@H](CCC(=O)NCCOCCOCC(=O)NCCOCCOCC(=O)NCCOCCOCC(=O)NCCOCCOCC(=O)NCCCC[C@H](NC(=O)[C@H](CCCCN)NC(=O)[C@H](CCCCN)NC(=O)[C@H](CCCNC(=N)N)NC(=O)C(C)(C)NC(=O)[C@H](CO)NC(=O)[C@H](Cc1c[nH]c2ccccc12)NC(=O)[C@@H](NC(=O)[C@H](CO)NC(=O)[C@H](CCCC)NC(=O)CNC(=O)[C@H](CCC(=O)O)NC(=O)C(C)(C)NC(=O)C(C)(C)NC(=O)[C@@H](NC(=O)[C@H](CCC(N)=O)NC(=O)[C@H](C)NC(=O)[C@H](CCCNC(=N)N)NC(=O)[C@@H](NC(=O)[C@H](CCCCN)NC(=O)[C@H](CCC(=O)O)NC(=O)[C@H](CCCNC(=N)N)NC(=O)CNC(=O)[C@H](CCC(=O)O)NC(=O)[C@H](CC(C)C)NC(C)=O)C(C)C)[C@@H](C)CC)[C@@H](C)O)C(N)=O)C(=O)O)C(=O)O)C(=O)O [compound 92] (Ac-LEGREKVRAQI[Aib][Aib]EG[Nle]STWS[Aib]RKKK([AEEA-AEEA-AEEA-AEEA-γGlu-γGlu-γGlu-Stearoyl])-NH2)
- EC50: 0.26 nM
- Emax: 82%

SMILES: CCCCCCCCCCCCCCCCCC(=O)N[C@@H](CCC(=O)N[C@@H](CCC(=O)N[C@@H](CCC(=O)NCCOCCOCC(=O)NCCOCCOCC(=O)NCCOCCOCC(=O)NCCOCCOCC(=O)NCCOCCOCC(=O)NCCCC[C@H](NC(=O)[C@H](CCCCN)NC(=O)[C@H](CCCCN)NC(=O)[C@H](CCCNC(=N)N)NC(=O)C(C)(C)NC(=O)[C@H](CO)NC(=O)[C@H](Cc1c[nH]c2ccccc12)NC(=O)[C@@H](NC(=O)[C@H](CO)NC(=O)[C@H](CCCC)NC(=O)CNC(=O)[C@H](CCC(=O)O)NC(=O)C(C)(C)NC(=O)C(C)(C)NC(=O)[C@@H](NC(=O)[C@H](CCC(N)=O)NC(=O)[C@H](C)NC(=O)[C@H](CCCNC(=N)N)NC(=O)[C@@H](NC(=O)[C@H](CCCCN)NC(=O)[C@H](CCC(=O)O)NC(=O)[C@H](CCCNC(=N)N)NC(=O)CNC(=O)[C@H](CCC(=O)O)NC(=O)[C@H](CC(C)C)NC(C)=O)C(C)C)[C@@H](C)CC)[C@@H](C)O)C(N)=O)C(=O)O)C(=O)O)C(=O)O [compound 93] (Ac-LEGREKVRAQI[Aib][Aib]EG[Nle]STWS[Aib]RKKK([AEEA-AEEA-AEEA-AEEA-AEEA-γGlu-γGlu-γGlu-Stearoyl])-NH2)
- EC50: 0.14 nM
- Emax: 87%

SMILES: CCCCCCCCCCCCCCCCCC(=O)N[C@@H](CCC(=O)N[C@@H](CCC(=O)N[C@@H](CCC(=O)NCCCOCCOCCOCCCNC(=O)COCC(=O)NCCCC[C@H](NC(=O)[C@H](CCCCNC(C)=O)NC(=O)[C@H](CCCCN)NC(=O)[C@H](CCCNC(=N)N)NC(=O)C(C)(C)NC(=O)[C@H](CO)NC(=O)[C@H](Cc1c[nH]c2ccccc12)NC(=O)[C@@H](NC(=O)[C@H](CO)NC(=O)[C@H](CCCC)NC(=O)CNC(=O)[C@H](CCC(=O)O)NC(=O)C(C)(C)NC(=O)C(C)(C)NC(=O)[C@@H](NC(=O)[C@H](CCCCNC(C)=O)NC(=O)[C@H](C)NC(=O)[C@H](CCCNC(=N)N)NC(=O)[C@@H](NC(=O)[C@H](CCCCN)NC(=O)[C@H](CCC(=O)O)NC(=O)[C@H](CCCNC(=N)N)NC(=O)CNC(=O)[C@H](CCC(=O)O)NC(=O)[C@H](CC(C)C)NC(C)=O)C(C)C)[C@@H](C)CC)[C@@H](C)O)C(N)=O)C(=O)O)C(=O)O)C(=O)O [compound 94] (Ac-LEGREKVRAK(Ac)I[Aib][Aib]EG[Nle]STWS[Aib]RKK(Ac)K(X16)-NH2)
- Emax: 90%

SMILES: CCCCCCCCCCCCCCCCCC(=O)N[C@@H](CCC(=O)N[C@@H](CCC(=O)N[C@@H](CCC(=O)NCCCOCCOCCOCCCNC(=O)COCC(=O)NCCCOCCOCCOCCCNC(=O)COCC(=O)NCCCOCCOCCOCCCNC(=O)COCC(=O)NCCCC[C@H](NC(=O)[C@H](CCCCNC(C)=O)NC(=O)[C@H](CCCCN)NC(=O)[C@H](CCCNC(=N)N)NC(=O)C(C)(C)NC(=O)[C@H](CO)NC(=O)[C@H](Cc1c[nH]c2ccccc12)NC(=O)[C@@H](NC(=O)[C@H](CO)NC(=O)[C@H](CCCC)NC(=O)CNC(=O)[C@H](CCC(=O)O)NC(=O)C(C)(C)NC(=O)C(C)(C)NC(=O)[C@@H](NC(=O)[C@H](CCCCNC(C)=O)NC(=O)[C@H](C)NC(=O)[C@H](CCCNC(=N)N)NC(=O)[C@@H](NC(=O)[C@H](CCCCN)NC(=O)[C@H](CCC(=O)O)NC(=O)[C@H](CCCNC(=N)N)NC(=O)CNC(=O)[C@H](CCC(=O)O)NC(=O)[C@H](CC(C)C)NC(C)=O)C(C)C)[C@@H](C)CC)[C@@H](C)O)C(N)=O)C(=O)O)C(=O)O)C(=O)O [compound 96] (Ac-LEGREKVRAK(Ac)I[Aib][Aib]EG[Nle]STWS[Aib]RKK(Ac)K(X15)-NH2)
- Emax: 89%
